Source: PubChem BioAssay (NCI)
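All cell lines were grown in 96-well plates and treated with compound for 48 hours. Here, GI50 denotes the concentration required for 50% inhibition of growth. TGI marks complete inhibition of growth.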

Tests used:
Experiment in all cases: growth of human tumour cells (NCI), 48 h
UO-31 renal = tested on: UO-31 renal
MDA-MB-231 breast = tested on: MDA-MB-231 breast
UACC-257 melanoma = tested on: UACC-257 melanoma
A498 renal = tested on: A498 renal
HOP-62 NSCLC = tested on: HOP-62 NSCLC
SW-620 colon = tested on: SW-620 colon
SN12C renal = tested on: SN12C renal
SF-295 CNS = tested on: SF-295 CNS
MALME-3M melanoma = tested on: MALME-3M melanoma
NCI/ADR-RES ovarian = tested on: NCI/ADR-RES ovarian

## Cc1cccc(NC(=O)Cn2cnc3sc(C(=O)OC(C)C)c(C)c3c2=O)c1
UO-31 renal
  GI50: > 50 µM
  TGI: > 50 µM
MDA-MB-231 breast
  GI50: 11.2 µM
  TGI: 39.5 µM
UACC-257 melanoma
  GI50: 19 µM
  TGI: > 50 µM
A498 renal
  GI50: 16.1 µM
  TGI: > 50 µM
HOP-62 NSCLC
  GI50: 13.7 µM
  TGI: 35.9 µM
SW-620 colon
  GI50: 33.5 µM
  TGI: > 50 µM
SN12C renal
  GI50: 7.66 µM
  TGI: 22.3 µM
SF-295 CNS
  GI50: > 50 µM
  TGI: > 50 µM

## COc1cc2c(c(OC)c1OC)-c1ccc(OC)c(=O)cc1C(NC(=O)c1ccc(N=[N+]=[N-])cc1)CC2 (stereo not given)
UO-31 renal
  TGI: > 95.7 µM
MALME-3M melanoma
  TGI: > 100 µM
MDA-MB-231 breast
  TGI: 12.5 µM
UACC-257 melanoma
  TGI: > 100 µM
A498 renal
  TGI: 0.0847 µM
HOP-62 NSCLC
  TGI: > 95.1 µM
SW-620 colon
  TGI: > 100 µM
SN12C renal
  TGI: > 41.9 µM
SF-295 CNS
  TGI: 0.0582 µM

## Clc1ccc(C(c2ccc(Cl)cc2)c2ccccn2)cc1
UO-31 renal
  TGI: 30.5 µM
MALME-3M melanoma
  TGI: 41.2 µM
UACC-257 melanoma
  TGI: 37.9 µM
SW-620 colon
  TGI: 44 µM
SN12C renal
  TGI: 31.7 µM
SF-295 CNS
  TGI: 43.4 µM

## COc1cc(/C=C2\CN(S(=O)(=O)c3ccccc3)C/C(=C\c3cc(CN4CCCC4)c(O)c(OC)c3)C2=O)cc(CN2CCCC2)c1O
UO-31 renal
  GI50: 1.92 µM
  TGI: 5.31 µM
NCI/ADR-RES ovarian
  GI50: > 100 µM
  TGI: > 100 µM
SN12C renal
  GI50: 1.08 µM
  TGI: 3.22 µM
SF-295 CNS
  GI50: 1.55 µM
  TGI: 3.64 µM

## O=C1NCC2(CCN(CCCC3(c4ccc(F)cc4)OCCO3)CC2)N1c1ccccc1
MALME-3M melanoma
  TGI: > 100 µM
MDA-MB-231 breast
  TGI: > 100 µM
UACC-257 melanoma
  TGI: > 100 µM
A498 renal
  TGI: > 100 µM
NCI/ADR-RES ovarian
  TGI: > 100 µM
HOP-62 NSCLC
  TGI: > 100 µM
SW-620 colon
  TGI: > 100 µM
SN12C renal
  TGI: > 100 µM
SF-295 CNS
  TGI: > 100 µM

## CCCCCCCCC/C=C1\CCC(CN2CCOCC2)C1=O (stereo not given)
UO-31 renal
  TGI: 14.9 µM
MALME-3M melanoma
  TGI: 19 µM
MDA-MB-231 breast
  TGI: 11.2 µM
UACC-257 melanoma
  TGI: 10.7 µM
A498 renal
  TGI: 24.5 µM
HOP-62 NSCLC
  TGI: 26.4 µM
SW-620 colon
  TGI: 5.43 µM
SN12C renal
  TGI: 13 µM
SF-295 CNS
  TGI: 20 µM

## CC(=O)/C(=C\c1cccc([N+](=O)[O-])c1)C(=O)Nc1ccccc1C
UO-31 renal
  TGI: > 100 µM
MALME-3M melanoma
  TGI: > 100 µM
UACC-257 melanoma
  TGI: > 100 µM
HOP-62 NSCLC
  TGI: > 100 µM
SW-620 colon
  TGI: > 100 µM
SN12C renal
  TGI: > 100 µM
SF-295 CNS
  TGI: > 100 µM

## O=C(Nc1ccc(Cl)cc1)c1cccc(NC2=C(Cl)C(=O)N(Cc3ccccc3)C2=O)c1
UO-31 renal
  GI50: 13 µM
  TGI: 30.4 µM
MDA-MB-231 breast
  GI50: 4.44 µM
  TGI: 17.6 µM
UACC-257 melanoma
  GI50: 15 µM
  TGI: 43.3 µM
A498 renal
  GI50: 19.9 µM
  TGI: 47.1 µM
NCI/ADR-RES ovarian
  GI50: 10.3 µM
  TGI: 24.3 µM
HOP-62 NSCLC
  GI50: 10.3 µM
  TGI: 22 µM
SW-620 colon
  GI50: 16.3 µM
  TGI: 43.6 µM
SN12C renal
  GI50: 7.79 µM
  TGI: 24.2 µM
SF-295 CNS
  GI50: 15.5 µM
  TGI: 61.9 µM

## Cc1cc(-c2ccc3nc(C4CCOCC4)n(CCOC(F)(F)F)c3c2)cn(C)c1=O
UO-31 renal
  TGI: > 20.7 µM
MALME-3M melanoma
  TGI: 5.16 µM
A498 renal
  TGI: 3.03 µM
NCI/ADR-RES ovarian
  GI50: 0.918 µM
SW-620 colon
  GI50: 1.79 µM
  TGI: 33.3 µM
SN12C renal
  GI50: 1.22 µM
  TGI: 31.1 µM
SF-295 CNS
  GI50: 0.748 µM

## CCCC(=O)OC1CC(n2cc(F)c(=O)[nH]c2=O)OC1COP(=O)(OCC(Cl)(Cl)Cl)OCC(Cl)(Cl)Cl (stereo not given)
UO-31 renal
  TGI: > 100 µM
MALME-3M melanoma
  TGI: > 100 µM
MDA-MB-231 breast
  TGI: > 100 µM
UACC-257 melanoma
  TGI: > 92 µM
NCI/ADR-RES ovarian
  TGI: > 31.6 µM
HOP-62 NSCLC
  TGI: > 100 µM
SW-620 colon
  TGI: > 100 µM
SN12C renal
  TGI: > 100 µM
SF-295 CNS
  TGI: 16.8 µM

## Cn1c2ccccc2c2cc(-c3ccccc3)c3c(c21)C(=O)c1ccccc1C3=O
UO-31 renal
  TGI: 35.4 µM
MALME-3M melanoma
  TGI: 49.6 µM
UACC-257 melanoma
  TGI: 42.9 µM
A498 renal
  TGI: > 100 µM
HOP-62 NSCLC
  TGI: > 100 µM
SW-620 colon
  TGI: 66.5 µM
SN12C renal
  TGI: > 100 µM
SF-295 CNS
  TGI: 74.4 µM

## CCc1cc(Cc2cc(CC)c(NC(=O)C(=O)Cc3ccccn3)c(CC)c2Cl)c(Cl)c(CC)c1NC(=O)C(=O)Cc1ccccn1
UO-31 renal
  TGI: > 100 µM
MALME-3M melanoma
  TGI: > 100 µM
UACC-257 melanoma
  TGI: > 100 µM
A498 renal
  TGI: > 100 µM
HOP-62 NSCLC
  TGI: > 100 µM
SW-620 colon
  TGI: 31.9 µM
SN12C renal
  TGI: > 100 µM
SF-295 CNS
  TGI: > 100 µM

## OCC#Cc1ccccc1C#Cc1ccccc1
UO-31 renal
  GI50: 35.2 µM
  TGI: > 100 µM
MDA-MB-231 breast
  GI50: 3.26 µM
  TGI: 16.4 µM
UACC-257 melanoma
  GI50: 16.2 µM
  TGI: 32 µM
NCI/ADR-RES ovarian
  GI50: 14.8 µM
  TGI: 30.8 µM
HOP-62 NSCLC
  GI50: 13.9 µM
  TGI: 26.8 µM
SW-620 colon
  GI50: 20 µM
  TGI: 43.6 µM
SN12C renal
  GI50: 8.79 µM
  TGI: 21.3 µM
SF-295 CNS
  GI50: 15.5 µM
  TGI: 32.8 µM

## COc1cc(NCc2ccc3oc(=O)c(-c4ccccc4)nc3c2)cc(OC)c1OC
UO-31 renal
  TGI: > 10 µM
MDA-MB-231 breast
  TGI: > 10 µM
UACC-257 melanoma
  TGI: > 10 µM
NCI/ADR-RES ovarian
  TGI: > 10 µM
HOP-62 NSCLC
  TGI: > 10 µM
SW-620 colon
  TGI: > 10 µM
SN12C renal
  TGI: > 10 µM
SF-295 CNS
  TGI: > 10 µM

## O=c1cc(-c2ccccc2)oc2cc(OCCCOc3ccc4c(=O)cc(-c5ccccc5)oc4c3)ccc12
MALME-3M melanoma
  TGI: > 100 µM
UACC-257 melanoma
  TGI: > 100 µM
HOP-62 NSCLC
  TGI: > 100 µM
SW-620 colon
  TGI: > 100 µM
SN12C renal
  TGI: > 100 µM
SF-295 CNS
  TGI: > 100 µM

## Cc1c2c(nn1-c1ccc(S(=O)(=O)/N=C3\SCCC(=O)N3c3ccccc3)cc1)-c1ccccc1CC2
UO-31 renal
  GI50: > 100 µM
  TGI: > 100 µM
MDA-MB-231 breast
  GI50: 35.1 µM
  TGI: > 100 µM
UACC-257 melanoma
  GI50: > 100 µM
  TGI: > 100 µM
NCI/ADR-RES ovarian
  GI50: > 100 µM
  TGI: > 100 µM
HOP-62 NSCLC
  GI50: 46.4 µM
  TGI: > 100 µM
SN12C renal
  GI50: 87.5 µM
  TGI: > 100 µM
SF-295 CNS
  GI50: 75.7 µM
  TGI: > 100 µM

## CCOC(=O)C(=C=C=C(c1ccccc1)c1ccccc1)C(=O)OCC
UO-31 renal
  TGI: 34.1 µM
MALME-3M melanoma
  TGI: 40.2 µM
UACC-257 melanoma
  TGI: 33.4 µM
A498 renal
  TGI: 78.9 µM
HOP-62 NSCLC
  TGI: 45.2 µM
SW-620 colon
  TGI: 51.2 µM
SN12C renal
  TGI: 42.4 µM
SF-295 CNS
  TGI: 30.6 µM

## CCN1c2ccccc2C(C(SC)S(=O)(=O)c2ccc(C)cc2)c2c1[nH]c(=O)n(C)c2=O (stereo not given)
UO-31 renal
  TGI: > 100 µM
MALME-3M melanoma
  TGI: > 100 µM
UACC-257 melanoma
  TGI: > 100 µM
A498 renal
  TGI: > 100 µM
HOP-62 NSCLC
  TGI: > 100 µM
SW-620 colon
  TGI: > 100 µM
SN12C renal
  TGI: > 100 µM
SF-295 CNS
  TGI: > 100 µM

## CC1=CC(O)(c2ccc(-c3ccccc3Cl)cc2)OC1=O (stereo not given)
UO-31 renal
  TGI: > 100 µM
MALME-3M melanoma
  TGI: > 100 µM
UACC-257 melanoma
  TGI: > 100 µM
HOP-62 NSCLC
  TGI: > 100 µM
SW-620 colon
  TGI: > 100 µM
SN12C renal
  TGI: > 100 µM
SF-295 CNS
  TGI: > 100 µM

## CCCCCCCC(=O)SCC/C=C/[C@@H]1CC(=O)NCc2cc(ccn2)C2=N[C@@](C)(CS2)C(=O)N[C@@H](C(C)C)C(=O)O1
UO-31 renal
  GI50: 0.0264 µM
  TGI: 0.426 µM
MALME-3M melanoma
  GI50: 0.00864 µM
  TGI: > 33.3 µM
MDA-MB-231 breast
  GI50: 0.05 µM
  TGI: > 33.3 µM
A498 renal
  GI50: 0.00591 µM
  TGI: 0.0418 µM
NCI/ADR-RES ovarian
  GI50: 0.241 µM
  TGI: > 33.3 µM
HOP-62 NSCLC
  GI50: 0.00958 µM
SW-620 colon
  GI50: 0.0749 µM
  TGI: 2.49 µM
SN12C renal
  GI50: 0.0641 µM
  TGI: > 33.3 µM
SF-295 CNS
  GI50: 0.0166 µM
  TGI: 0.147 µM
